The text below walks through data of PMC4170623, “A novel class I HDAC inhibitor, MPT0G030, induces cell apoptosis and differentiation in human colorectal cancer cells via HDAC1/PKCδ and E-cadherin” (Oncotarget, 2014).

The structures appear in SMILES notation. Read-outs that look alike come from different tables or passages of the source.

The target in one data set is HDAC9 (Homo sapiens, UniProt Q9UKV0). In words: Fluorometric HDAC activity assay, recombinant isoform.
The subject of another data set is A549. The experiment in a line: Sulforhodamine B (SRB) growth inhibition assay. Type of data set: cell-based, human. As to conditions: A549, ± SE. How it is done: (§1) Cells were inoculated into 96-well plates in growth medium. After 24 h, cells were fixed with 10% trichloroacetic acid (TCA), to represent a measurement of the cell population at the time of drug addition (Tz). After incubation with vehicle (0.1% DMSO) or different concentrations of compound for 48 h (Tt), cells were fixed with 10% TCA and stained with 0.4% SRB. After staining, unbound SRB was removed by 1% acetic acid. Bound SRB was solubilized with 10 mM trizma base and the absorbance was measured at 515 nm. Percentage of growth inhibition was calculated as: 100−[(Tt-Tz)/(C-Tz)] ×100. Tt represents absorbance of compound-treated group, and C means absorbance of vehicle-treated group.

The subject of data set [1] is HT-29 cells. The experiment in a line: Sulforhodamine B (SRB) growth inhibition assay. Type of data set: cell-based, human. As for the experimental part:
as §1

The test system of a further data set is HCT116. In words: Sulforhodamine B (SRB) growth inhibition assay. Type of data set: cell-based, human. The conditions noted are these: HCT116, ± SE. How it is done: as §1
Another data set has as its system Hep3B. In words: Sulforhodamine B (SRB) growth inhibition assay. It is filed as cell-based, human. The conditions noted are these: ± SE. As for the experimental part:
as §1

Another data set addresses HDAC2 (Homo sapiens, UniProt Q92769). The experiment in a line: Fluorometric HDAC activity assay, recombinant isoform.
A further data set concerns PC3. In words: Sulforhodamine B (SRB) growth inhibition assay. It is filed as cell-based. As to conditions: Homo sapiens, PC-3; PC3, ± SE. How it is done: as §1, with “Bound SRB was solubilized with 10 mM trizma base and the absorbance was measured at 515 nm.” left out
Another data set deals with T1, HDAC6 (Homo sapiens, UniProt Q9UBN7).
T1 sequence (Q9UBN7 1-1215): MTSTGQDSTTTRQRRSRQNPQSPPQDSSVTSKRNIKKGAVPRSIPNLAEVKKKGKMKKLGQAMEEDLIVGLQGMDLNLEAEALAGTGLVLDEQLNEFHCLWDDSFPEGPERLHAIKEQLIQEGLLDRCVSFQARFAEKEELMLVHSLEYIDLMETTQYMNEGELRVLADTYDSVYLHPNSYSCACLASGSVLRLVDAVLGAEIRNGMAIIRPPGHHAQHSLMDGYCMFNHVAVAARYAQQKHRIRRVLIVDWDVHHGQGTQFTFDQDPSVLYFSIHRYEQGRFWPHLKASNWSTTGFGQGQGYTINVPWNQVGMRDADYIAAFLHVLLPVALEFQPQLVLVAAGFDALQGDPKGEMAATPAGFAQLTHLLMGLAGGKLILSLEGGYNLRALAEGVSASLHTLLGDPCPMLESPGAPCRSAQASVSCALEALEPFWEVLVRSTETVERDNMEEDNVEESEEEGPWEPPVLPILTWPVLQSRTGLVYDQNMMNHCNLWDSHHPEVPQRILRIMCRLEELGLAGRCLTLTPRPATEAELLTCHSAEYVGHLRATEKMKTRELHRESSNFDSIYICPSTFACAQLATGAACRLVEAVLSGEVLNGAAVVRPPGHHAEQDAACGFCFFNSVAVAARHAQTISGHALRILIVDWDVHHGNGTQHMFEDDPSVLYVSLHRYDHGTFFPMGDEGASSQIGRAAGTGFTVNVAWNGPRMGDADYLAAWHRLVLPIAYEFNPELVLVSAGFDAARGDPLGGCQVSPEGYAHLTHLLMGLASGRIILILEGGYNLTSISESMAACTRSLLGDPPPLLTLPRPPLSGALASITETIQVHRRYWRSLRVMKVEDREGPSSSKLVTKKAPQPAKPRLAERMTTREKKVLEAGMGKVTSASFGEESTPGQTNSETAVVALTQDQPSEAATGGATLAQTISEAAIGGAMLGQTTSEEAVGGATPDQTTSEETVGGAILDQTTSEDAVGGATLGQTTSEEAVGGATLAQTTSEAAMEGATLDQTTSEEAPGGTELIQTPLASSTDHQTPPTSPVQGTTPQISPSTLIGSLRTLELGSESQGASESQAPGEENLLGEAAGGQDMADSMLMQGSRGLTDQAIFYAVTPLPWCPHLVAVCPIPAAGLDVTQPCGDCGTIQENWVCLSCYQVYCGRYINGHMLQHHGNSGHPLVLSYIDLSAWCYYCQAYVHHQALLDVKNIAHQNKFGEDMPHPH
In words: Fluorometric HDAC activity assay, recombinant isoform.

For another data set, the target named is HDAC4 (Homo sapiens, UniProt P56524). Described as above.
Chain of HDAC4 (P56524 whole entry): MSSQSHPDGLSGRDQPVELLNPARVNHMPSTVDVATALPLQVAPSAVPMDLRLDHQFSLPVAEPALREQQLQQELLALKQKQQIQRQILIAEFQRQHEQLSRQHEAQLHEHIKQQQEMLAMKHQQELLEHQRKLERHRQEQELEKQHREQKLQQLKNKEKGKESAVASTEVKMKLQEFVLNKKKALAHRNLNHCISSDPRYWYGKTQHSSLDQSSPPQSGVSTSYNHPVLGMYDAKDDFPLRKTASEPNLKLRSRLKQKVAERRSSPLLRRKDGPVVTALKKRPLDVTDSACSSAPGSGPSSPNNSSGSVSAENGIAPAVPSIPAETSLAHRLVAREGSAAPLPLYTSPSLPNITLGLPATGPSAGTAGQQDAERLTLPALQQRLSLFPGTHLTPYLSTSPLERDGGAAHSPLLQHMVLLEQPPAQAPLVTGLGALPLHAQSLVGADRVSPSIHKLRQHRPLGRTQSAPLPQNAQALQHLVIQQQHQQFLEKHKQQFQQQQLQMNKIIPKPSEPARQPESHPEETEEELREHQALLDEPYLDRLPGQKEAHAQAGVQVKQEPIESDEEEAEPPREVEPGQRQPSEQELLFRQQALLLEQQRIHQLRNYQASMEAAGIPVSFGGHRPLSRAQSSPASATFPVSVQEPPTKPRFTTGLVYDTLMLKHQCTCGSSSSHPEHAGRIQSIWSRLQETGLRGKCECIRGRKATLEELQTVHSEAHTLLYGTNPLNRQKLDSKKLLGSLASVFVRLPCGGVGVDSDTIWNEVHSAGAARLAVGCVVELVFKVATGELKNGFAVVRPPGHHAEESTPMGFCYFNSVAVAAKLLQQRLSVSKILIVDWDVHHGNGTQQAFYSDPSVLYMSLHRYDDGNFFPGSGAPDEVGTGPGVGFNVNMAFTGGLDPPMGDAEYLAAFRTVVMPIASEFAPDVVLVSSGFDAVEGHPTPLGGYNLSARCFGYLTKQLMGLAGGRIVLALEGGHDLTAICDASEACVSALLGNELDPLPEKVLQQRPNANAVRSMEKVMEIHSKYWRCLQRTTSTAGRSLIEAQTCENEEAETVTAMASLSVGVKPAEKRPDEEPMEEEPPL
The test system of data set [2] is HT-29 cells. In words: MTT cell viability assay. Type of data set: cell-based. As to conditions: Homo sapiens, 24 h, read-out: IC50 (cell death, MTT). As for the experimental part:
Cells were seeded in 96-well plates in growth medium overnight. Cells were treated with vehicle (0.1% DMSO) or different concentrations of compound for 24 h, then incubated with MTT reagent at 37°C for 1 h. After incubation, the insoluble formazan produced in living cells. The formazan crystals were dissolved with DMSO and the absorbance was measured at 550 nm.

The next data set relates to HUVEC cells. The experiment in a line: MTT cell viability assay in normal cells. Type of data set: cell-based, human. As to conditions: 24 h. (Formazan colour is commonly taken as a measure of viable cells.)
For data set [3], the system named is total HDACs in HT-29 cells. The experiment in a line: Fluorometric HDAC activity assay, total HDACs in cell lysates. As to conditions: read-out: IC50 inhibition of total HDACs, HT-29 cells treated 24 h.
Experimental: (§2) Two different types of in vitro HDAC activity assays were used (with or without cells). Test compounds were incubated with individual recombinant HDAC isoforms (HDAC 1-9) and the assay was performed according to the manufacturer's protocol (BPS Biosciences, USA).
For data set [4], the system named is HT-29 cells. In words: Cell death detection ELISA (DNA fragmentation). Type of data set: cell-based, human. As to conditions: 24 h, compared with SAHA. How it is done:
Cell Death Detection ELISA Kit (Roche Diagnostics, Switzerland) was used to analyze drug-induced apoptosis. […] Adherent cells were collected and the assay was performed according to the manufacturer's protocol.

The next data set addresses T2, HDAC8 (Homo sapiens, UniProt Q9BY41).
T2 sequence (Q9BY41 1-377): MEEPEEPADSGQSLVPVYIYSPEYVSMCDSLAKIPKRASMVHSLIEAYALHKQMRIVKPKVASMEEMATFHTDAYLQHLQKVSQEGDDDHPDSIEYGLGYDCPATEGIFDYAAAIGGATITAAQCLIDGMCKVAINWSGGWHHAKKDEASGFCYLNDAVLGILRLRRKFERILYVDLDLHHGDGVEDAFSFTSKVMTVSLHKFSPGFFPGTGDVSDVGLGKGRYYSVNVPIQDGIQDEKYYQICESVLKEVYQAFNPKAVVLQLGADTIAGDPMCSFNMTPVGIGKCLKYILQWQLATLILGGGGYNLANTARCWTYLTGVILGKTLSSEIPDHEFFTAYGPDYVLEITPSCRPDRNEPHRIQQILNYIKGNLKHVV
The experiment in a line: Fluorometric HDAC activity assay, recombinant isoform.

The target of the next data set is HDAC1 (Homo sapiens, UniProt Q13547). Described as above.
Chain of HDAC1 (Q13547 whole entry): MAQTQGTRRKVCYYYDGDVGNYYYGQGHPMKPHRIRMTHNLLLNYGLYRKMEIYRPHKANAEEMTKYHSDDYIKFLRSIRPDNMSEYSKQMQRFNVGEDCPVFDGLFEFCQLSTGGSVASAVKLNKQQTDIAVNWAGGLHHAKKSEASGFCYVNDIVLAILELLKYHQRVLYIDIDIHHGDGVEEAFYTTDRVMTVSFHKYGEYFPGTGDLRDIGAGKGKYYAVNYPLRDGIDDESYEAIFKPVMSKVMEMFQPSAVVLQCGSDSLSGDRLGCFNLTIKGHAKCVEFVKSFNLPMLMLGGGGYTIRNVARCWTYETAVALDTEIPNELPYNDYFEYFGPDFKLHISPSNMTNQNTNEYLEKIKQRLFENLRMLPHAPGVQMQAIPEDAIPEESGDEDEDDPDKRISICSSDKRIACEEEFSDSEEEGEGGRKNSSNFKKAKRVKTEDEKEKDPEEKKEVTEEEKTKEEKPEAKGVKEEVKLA
The target in a further data set is T3, HDAC7 (Homo sapiens, UniProt Q8WUI4).
T3 sequence (Q8WUI4 1-952): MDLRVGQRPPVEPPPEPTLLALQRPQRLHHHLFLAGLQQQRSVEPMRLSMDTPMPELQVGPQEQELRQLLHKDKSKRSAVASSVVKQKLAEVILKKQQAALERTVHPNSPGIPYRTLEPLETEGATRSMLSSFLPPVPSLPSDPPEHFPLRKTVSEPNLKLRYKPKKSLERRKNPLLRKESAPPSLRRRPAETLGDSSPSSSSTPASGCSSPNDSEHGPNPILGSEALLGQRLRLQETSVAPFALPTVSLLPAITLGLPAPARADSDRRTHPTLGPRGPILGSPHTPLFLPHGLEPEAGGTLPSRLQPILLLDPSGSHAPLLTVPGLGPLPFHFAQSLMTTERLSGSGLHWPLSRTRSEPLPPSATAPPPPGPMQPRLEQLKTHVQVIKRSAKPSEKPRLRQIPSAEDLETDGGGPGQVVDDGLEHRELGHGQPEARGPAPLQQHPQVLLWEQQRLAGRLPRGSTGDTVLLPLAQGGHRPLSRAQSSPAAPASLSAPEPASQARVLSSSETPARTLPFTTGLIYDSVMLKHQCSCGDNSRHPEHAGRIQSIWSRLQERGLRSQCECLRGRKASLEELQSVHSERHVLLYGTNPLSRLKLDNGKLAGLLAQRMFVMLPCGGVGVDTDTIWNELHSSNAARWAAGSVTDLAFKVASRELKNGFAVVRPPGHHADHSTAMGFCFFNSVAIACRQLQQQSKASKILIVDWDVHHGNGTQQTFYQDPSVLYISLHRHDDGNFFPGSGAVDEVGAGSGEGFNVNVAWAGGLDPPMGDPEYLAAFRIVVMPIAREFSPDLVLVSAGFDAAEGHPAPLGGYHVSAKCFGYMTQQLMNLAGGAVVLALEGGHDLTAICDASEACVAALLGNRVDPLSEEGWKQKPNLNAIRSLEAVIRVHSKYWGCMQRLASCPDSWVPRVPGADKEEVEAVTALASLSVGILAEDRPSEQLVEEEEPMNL
The data set is described as above.

In the next data set the target is HDAC5 (Homo sapiens, UniProt Q9UQL6). Described as above.
Chain of HDAC5 (Q9UQL6 whole entry): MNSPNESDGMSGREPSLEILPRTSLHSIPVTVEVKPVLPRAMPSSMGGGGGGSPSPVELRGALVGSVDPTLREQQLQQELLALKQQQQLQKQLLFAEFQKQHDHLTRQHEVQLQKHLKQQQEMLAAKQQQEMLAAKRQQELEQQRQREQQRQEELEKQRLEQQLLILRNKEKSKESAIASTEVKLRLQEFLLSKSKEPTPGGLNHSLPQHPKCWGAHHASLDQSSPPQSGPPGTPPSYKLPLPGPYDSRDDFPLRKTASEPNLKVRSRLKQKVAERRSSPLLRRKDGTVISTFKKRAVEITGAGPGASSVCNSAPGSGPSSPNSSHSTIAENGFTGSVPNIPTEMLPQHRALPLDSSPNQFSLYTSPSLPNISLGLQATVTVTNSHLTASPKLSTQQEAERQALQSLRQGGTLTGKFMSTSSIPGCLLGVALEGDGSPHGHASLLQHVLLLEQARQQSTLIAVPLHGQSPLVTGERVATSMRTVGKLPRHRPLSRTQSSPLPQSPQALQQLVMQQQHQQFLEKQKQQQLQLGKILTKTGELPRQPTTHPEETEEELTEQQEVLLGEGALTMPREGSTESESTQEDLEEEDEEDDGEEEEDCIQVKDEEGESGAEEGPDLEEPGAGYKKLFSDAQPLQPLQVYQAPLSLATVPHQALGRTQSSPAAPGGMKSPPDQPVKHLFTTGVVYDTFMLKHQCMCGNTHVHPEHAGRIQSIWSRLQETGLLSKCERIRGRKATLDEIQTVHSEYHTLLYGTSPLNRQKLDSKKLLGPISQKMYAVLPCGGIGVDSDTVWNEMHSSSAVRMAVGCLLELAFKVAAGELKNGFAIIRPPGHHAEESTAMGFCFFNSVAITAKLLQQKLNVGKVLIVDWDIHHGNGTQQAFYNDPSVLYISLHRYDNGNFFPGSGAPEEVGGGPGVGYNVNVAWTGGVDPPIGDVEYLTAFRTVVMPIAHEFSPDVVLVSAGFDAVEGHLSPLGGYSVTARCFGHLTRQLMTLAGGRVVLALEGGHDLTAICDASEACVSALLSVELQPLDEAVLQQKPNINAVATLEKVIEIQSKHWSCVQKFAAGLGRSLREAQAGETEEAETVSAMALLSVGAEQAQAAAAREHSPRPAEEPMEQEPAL
For the next data set, the system named is HT-29 tumor xenograft. The experiment in a line: HT-29 tumor xenograft model. It is filed as in vivo, athymic nude mice. As to conditions: 100 or 200 mg/kg qd by gavage, 18 days. As for the experimental part: Tumor volumes were calculated using caliper measurements twice per week using the formula volume (mm^3) = (length × width^2)/2. Body weights were measured daily during the first week and twice per week thereafter. […] The protocols of the in vivo study were approved by the Animal Care and User Committee at National Taiwan University.

In data set [5] the test system is HT-29 cells. On the set-up: method as in PMID 10200307. The conditions noted are these: cited from earlier work.

Chain of HDAC9 (Q9UKV0 whole entry, canonical isoform): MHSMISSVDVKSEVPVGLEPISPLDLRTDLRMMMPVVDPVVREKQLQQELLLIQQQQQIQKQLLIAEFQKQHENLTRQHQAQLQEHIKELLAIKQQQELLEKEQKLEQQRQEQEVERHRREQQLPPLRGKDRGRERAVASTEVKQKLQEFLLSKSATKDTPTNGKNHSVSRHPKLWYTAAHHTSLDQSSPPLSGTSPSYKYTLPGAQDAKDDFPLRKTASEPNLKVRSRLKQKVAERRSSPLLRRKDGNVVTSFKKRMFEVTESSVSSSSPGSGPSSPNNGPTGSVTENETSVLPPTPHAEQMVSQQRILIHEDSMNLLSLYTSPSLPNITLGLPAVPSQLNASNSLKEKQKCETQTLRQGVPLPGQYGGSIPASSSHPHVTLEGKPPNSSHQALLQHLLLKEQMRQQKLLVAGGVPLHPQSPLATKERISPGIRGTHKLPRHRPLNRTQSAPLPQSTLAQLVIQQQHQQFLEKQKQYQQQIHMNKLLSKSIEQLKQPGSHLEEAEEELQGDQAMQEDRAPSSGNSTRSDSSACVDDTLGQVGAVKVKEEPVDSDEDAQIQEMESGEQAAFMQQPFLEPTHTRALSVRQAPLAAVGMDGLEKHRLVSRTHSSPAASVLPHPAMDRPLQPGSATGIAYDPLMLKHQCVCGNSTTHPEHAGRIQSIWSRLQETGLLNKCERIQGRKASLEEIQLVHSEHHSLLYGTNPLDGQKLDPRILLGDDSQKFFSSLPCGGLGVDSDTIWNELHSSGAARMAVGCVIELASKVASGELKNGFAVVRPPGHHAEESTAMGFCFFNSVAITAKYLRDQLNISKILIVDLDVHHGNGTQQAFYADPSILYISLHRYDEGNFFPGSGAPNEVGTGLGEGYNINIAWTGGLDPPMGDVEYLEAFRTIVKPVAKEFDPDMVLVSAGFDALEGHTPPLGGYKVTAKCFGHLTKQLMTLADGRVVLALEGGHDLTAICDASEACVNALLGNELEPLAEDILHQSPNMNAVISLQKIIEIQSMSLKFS
Chain of HDAC2 (Q92769 whole entry, canonical isoform): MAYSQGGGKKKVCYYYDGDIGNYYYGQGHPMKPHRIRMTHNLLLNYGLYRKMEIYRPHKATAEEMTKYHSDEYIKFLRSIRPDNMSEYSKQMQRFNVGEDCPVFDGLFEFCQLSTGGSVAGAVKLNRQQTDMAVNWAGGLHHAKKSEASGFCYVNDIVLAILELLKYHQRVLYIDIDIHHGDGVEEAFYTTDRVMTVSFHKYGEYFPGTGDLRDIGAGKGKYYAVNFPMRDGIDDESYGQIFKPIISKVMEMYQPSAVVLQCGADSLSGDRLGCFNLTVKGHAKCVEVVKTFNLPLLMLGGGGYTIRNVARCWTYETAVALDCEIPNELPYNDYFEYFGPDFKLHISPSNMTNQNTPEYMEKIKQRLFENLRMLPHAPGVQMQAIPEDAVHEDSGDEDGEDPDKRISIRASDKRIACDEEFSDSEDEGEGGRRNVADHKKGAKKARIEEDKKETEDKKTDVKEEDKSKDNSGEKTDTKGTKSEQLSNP
Experimental for HDAC1: as §2
Experimental for HDAC2: as §2
Experimental for HDAC4: as §2
Experimental for HDAC5: as §2
Experimental for HDAC6: as §2
Experimental for HDAC7: as §2
Experimental for HDAC8: as §2
Experimental for HDAC9: as §2
Experimental for HUVEC cells: Then, cell viability was measured by the mitochondrial MTT reduction activity assay.

Consider `COc1ccc(S(=O)(=O)N2CCc3cc(C=CC(=O)NO)cc(N)c32)cc1` [MPT0G030, 3-[7-amino-1-(4-methoxy-benzenesulfonyl)-2,3-dihydro-1H-indol-5-yl]-N-hydroxy-acrylamide], for which the IC50 (usually the concentration needed to halve the response being measured) at HDAC9 is over 10 µM; at HDAC2, 242 ± 47.6 nM; at HDAC6, 4.368 ± 0.0421 µM; at HDAC4, over 10 µM; in the data set with HT-29 cells [2], 985 ± 60 nM; in data set [3] it was 6.45 ± 1.39 µM. Besides, the IC50 on HDAC8 was 3.34 ± 0.13 µM; on HDAC1, 75.1 ± 4.65 nM; on HDAC7 it was over 10 µM; on HDAC5, over 5 µM. Besides, the “Ratio: fold x IC50 relative to HDAC1 isoform” value at HDAC9 (HDAC9) is on record as over 130; at HDAC2 (HDAC2), 3.22; on HDAC6 (HDAC6), 58.19; on HDAC8 (HDAC8), 44.55; at HDAC1 (HDAC1), 1; on HDAC7 (HDAC7) it was over 130. In addition, the “Ratio: fold x IC50 relative to HDAC1 isoform” value on HDAC5 (HDAC5) is recorded as over 60. Further, the GI50 – broadly, the concentration that inhibits growth by half – came out at 180 ± 10 nM in the data set with A549 (Homo sapiens); 145 ± 10 nM with HT-29 cells [1] (Homo sapiens, HT-29, 48 h); 110 ± 20 nM in the data set on HCT116 (Homo sapiens, HCT-116); 140 ± 10 nM in the data set on Hep3B (Homo sapiens); 170 ± 10 nM with PC3. In addition, the “HDAC6 IC50 of MPT0G030 as fold x IC50 of SAHA” value on HDAC6 (HDAC6) is over 55 fold. For the same compound, the “IC50 in normal (HUVEC) cells relative to IC50 in HT-29 cells” value with HUVEC cells was “about thirty times higher”. For the same compound, the “Induction of cell apoptosis (cytoplasmic histone-associated DNA fragments)” value in the data set with HT-29 cells [4] was “more effective on inducing cell apoptosis”. Besides, the Body weight result in the data set on HT-29 tumor xenograft is on record as “not affected”.
On to `O=C(CCCCCCC(=O)Nc1ccccc1)NO` [SAHA, suberanilohydroxamic acid, reference compound], for which the GI50 with A549 was 2620 ± 1370 nM; in the data set on HT-29 cells [1] (48 h), 920 ± 50 nM; with HCT116 it was 440 ± 30 nM; with Hep3B it was 950 ± 40 nM. For the same compound, the half-inhibitory concentration (IC50) in data set [3] was 29.6 ± 2.62 µM.
For the compound `Nc1ccccc1NC(=O)c1ccc(CNC(=O)OCc2cccnc2)cc1` [entinostat], the GI50 in the data set on HT-29 cells [5] is 1290 nM.
